Consider 41 molecules from patent US20050197350A1, “Novel quinoline, tetrahydroquinazoline, and pyrimidine derivatives and methods of treatment related to the use thereof” (TAISHO PHARMACEUTICAL CO., LTD., priority 2003, published 2005).

Each structure is given as a SMILES string.

The test relates to MCH receptors. Briefly: MCH receptor activity class (method not given). The following applies: class by percent of control at 10^-7 M or IC50.

For the molecule `CN(C)c1cc(N[C@H]2CC[C@@H](CNCc3ccc(N(C)C)c4ccccc34)CC2)nc2ccccc12` [compound 1160], the class was 3 (Class 3 The value of percent of control at 10^−7 M was more than 60% or the value of IC50 was more than 200 nM.).
Regarding `COc1cc(OC)c(CNC[C@H]2CC[C@@H](Nc3cc(N(C)C)c4ccccc4n3)CC2)c(OC)c1` [compound 1161], the class is given as 2 (Class 2: The value of percent of control at 10^−7 M was from 40% to 60% or the value of IC′50 was from 50 nM to 200 nM.).
For `CN(C)c1cc(N[C@H]2CC[C@@H](CNCc3cc(Cl)cc(Br)c3O)CC2)nc2ccccc12` [compound 1162] the value was 3 (Class 3 The value of percent of control at 10^−7 M was more than 60% or the value of IC50 was more than 200 nM.); for `CN(C)c1cc(N[C@H]2CC[C@@H](CNCc3cccc(C#N)c3)CC2)nc2ccccc12` [compound 1163], 3 (Class 3 The value of percent of control at 10^−7 M was more than 60% or the value of IC50 was more than 200 nM.).
The figure for `COc1ccc(F)c(CNC[C@H]2CC[C@@H](Nc3cc(N(C)C)c4ccccc4n3)CC2)c1` [compound 1164] is 3 (Class 3 The value of percent of control at 10^−7 M was more than 60% or the value of IC50 was more than 200 nM.); for `CN(C)c1cc(N[C@H]2CC[C@@H](CNCc3ccccc3SC(F)(F)F)CC2)nc2ccccc12` [compound 1165] it is 3 (Class 3 The value of percent of control at 10^−7 M was more than 60% or the value of IC50 was more than 200 nM.).
The figure for `CCOc1ccc(Br)cc1CNC[C@H]1CC[C@@H](Nc2cc(N(C)C)c3ccccc3n2)CC1` [compound 1166] is 3 (Class 3 The value of percent of control at 10^−7 M was more than 60% or the value of IC50 was more than 200 nM.); for `COc1ccc(CNC[C@H]2CC[C@@H](Nc3cc(N(C)C)c4ccccc4n3)CC2)c(OC)c1C` [compound 1167] it is 3 (Class 3 The value of percent of control at 10^−7 M was more than 60% or the value of IC50 was more than 200 nM.).
In the case of `CN(C)c1cc(N[C@H]2CC[C@@H](CNCc3ccccc3OC(F)(F)F)CC2)nc2ccccc12` [compound 1168], the class was 3 (Class 3 The value of percent of control at 10^−7 M was more than 60% or the value of IC50 was more than 200 nM.).
The figure for `CCOc1ccc(OCC)c(CNC[C@H]2CC[C@@H](Nc3cc(N(C)C)c4ccccc4n3)CC2)c1` [compound 1169] is 2 (Class 2: The value of percent of control at 10^−7 M was from 40% to 60% or the value of IC′50 was from 50 nM to 200 nM.).
For `CCOc1ccc(CNC[C@H]2CC[C@@H](Nc3cc(N(C)C)c4ccccc4n3)CC2)c(OCC)c1` [compound 1170] the value was 2 (Class 2: The value of percent of control at 10^−7 M was from 40% to 60% or the value of IC′50 was from 50 nM to 200 nM.); for `COc1c(Br)cc(Br)cc1CNC[C@H]1CC[C@@H](Nc2cc(N(C)C)c3ccccc3n2)CC1` [compound 1171], 2 (Class 2: The value of percent of control at 10^−7 M was from 40% to 60% or the value of IC′50 was from 50 nM to 200 nM.); for `CN(C)c1cc(N[C@H]2CC[C@@H](CNCc3ccccc3OC(F)F)CC2)nc2ccccc12` [compound 1172], 3 (Class 3 The value of percent of control at 10^−7 M was more than 60% or the value of IC50 was more than 200 nM.).
Take `COc1ccc(F)cc1CNC[C@H]1CC[C@@H](Nc2cc(N(C)C)c3ccccc3n2)CC1` [compound 1173]: the class is on record as 3 (Class 3 The value of percent of control at 10^−7 M was more than 60% or the value of IC50 was more than 200 nM.).
The figure for `CCOc1cc(OCC)c(OCC)cc1CNC[C@H]1CC[C@@H](Nc2cc(N(C)C)c3ccccc3n2)CC1` [compound 1174] is 2 (Class 2: The value of percent of control at 10^−7 M was from 40% to 60% or the value of IC′50 was from 50 nM to 200 nM.); for `COc1cc(OC)c(OC)cc1CNC[C@H]1CC[C@@H](Nc2cc(N(C)C)c3ccccc3n2)CC1` [compound 1175] it is 2 (Class 2: The value of percent of control at 10^−7 M was from 40% to 60% or the value of IC′50 was from 50 nM to 200 nM.); for `COc1cccc(CNC[C@H]2CC[C@@H](Nc3cc(N(C)C)c4ccccc4n3)CC2)c1OC` [compound 1176] it is 3 (Class 3 The value of percent of control at 10^−7 M was more than 60% or the value of IC50 was more than 200 nM.).
The figure for `C=CCOc1ccccc1CNC[C@H]1CC[C@@H](Nc2cc(N(C)C)c3ccccc3n2)CC1` [compound 1177] is 2 (Class 2: The value of percent of control at 10^−7 M was from 40% to 60% or the value of IC′50 was from 50 nM to 200 nM.).
In the case of `CN(C)c1cc(N[C@H]2CC[C@@H](CNCc3csc4ccccc34)CC2)nc2ccccc12` [compound 1178], the class is on record as 3 (Class 3 The value of percent of control at 10^−7 M was more than 60% or the value of IC50 was more than 200 nM.).
The figure for `CN(C)c1cc(N[C@H]2CC[C@@H](CNCc3cn(C)c4ccccc34)CC2)nc2ccccc12` [compound 1179] is 3 (Class 3 The value of percent of control at 10^−7 M was more than 60% or the value of IC50 was more than 200 nM.); for `Cc1ccc(CNC[C@H]2CC[C@@H](Nc3cc(N(C)C)c4ccccc4n3)CC2)s1` [compound 1180] it is 3 (Class 3 The value of percent of control at 10^−7 M was more than 60% or the value of IC50 was more than 200 nM.).
The figure for `Cc1cc(C)c(CNC[C@H]2CC[C@@H](Nc3cc(N(C)C)c4ccccc4n3)CC2)c(C)c1` [compound 1181] is 3 (Class 3 The value of percent of control at 10^−7 M was more than 60% or the value of IC50 was more than 200 nM.); for `CN(C)c1cc(N[C@H]2CC[C@@H](CNCc3ccc4c(c3)OCO4)CC2)nc2ccccc12` [compound 1182] it is 3 (Class 3 The value of percent of control at 10^−7 M was more than 60% or the value of IC50 was more than 200 nM.); for `CN(C)c1cc(N[C@H]2CC[C@@H](CNCc3ccsc3)CC2)nc2ccccc12` [compound 1183] it is 3 (Class 3 The value of percent of control at 10^−7 M was more than 60% or the value of IC50 was more than 200 nM.).
Consider `Cc1cccc(CNC[C@H]2CC[C@@H](Nc3cc(N(C)C)c4ccccc4n3)CC2)c1` [compound 1184], for which the class was 3 (Class 3 The value of percent of control at 10^−7 M was more than 60% or the value of IC50 was more than 200 nM.).
The figure for `Cc1ccccc1CNC[C@H]1CC[C@@H](Nc2cc(N(C)C)c3ccccc3n2)CC1` [compound 1185] is 3 (Class 3 The value of percent of control at 10^−7 M was more than 60% or the value of IC50 was more than 200 nM.); for `Cc1ccc(CNC[C@H]2CC[C@@H](Nc3cc(N(C)C)c4ccccc4n3)CC2)cc1` [compound 1186] it is 3 (Class 3 The value of percent of control at 10^−7 M was more than 60% or the value of IC50 was more than 200 nM.); for `CN(C)c1cc(N[C@H]2CC[C@@H](CNCc3cc(Cl)cc(Cl)c3)CC2)nc2ccccc12` [compound 1187] it is 3 (Class 3 The value of percent of control at 10^−7 M was more than 60% or the value of IC50 was more than 200 nM.).
Regarding `COc1cc(CNC[C@H]2CC[C@@H](Nc3cc(N(C)C)c4ccccc4n3)CC2)cc2c1OCO2` [compound 1188], the class was 2 (Class 2: The value of percent of control at 10^−7 M was from 40% to 60% or the value of IC′50 was from 50 nM to 200 nM.).
Regarding `COc1cc(CNC[C@H]2CC[C@@H](Nc3cc(N(C)C)c4ccccc4n3)CC2)cc(Br)c1OC` [compound 1189], the class is recorded as 3 (Class 3 The value of percent of control at 10^−7 M was more than 60% or the value of IC50 was more than 200 nM.).
For `COc1ccc(CNC[C@H]2CC[C@@H](Nc3cc(N(C)C)c4ccccc4n3)CC2)cc1C` [compound 1190] the value was 3 (Class 3 The value of percent of control at 10^−7 M was more than 60% or the value of IC50 was more than 200 nM.).
In the case of `COc1cc(Br)c(CNC[C@H]2CC[C@@H](Nc3cc(N(C)C)c4ccccc4n3)CC2)cc1OC` [compound 1191], the class was 3 (Class 3 The value of percent of control at 10^−7 M was more than 60% or the value of IC50 was more than 200 nM.).
For `Cc1oc(-c2ccccc2)cc1CNC[C@H]1CC[C@@H](Nc2cc(N(C)C)c3ccccc3n2)CC1` [compound 1192] the value was 3 (Class 3 The value of percent of control at 10^−7 M was more than 60% or the value of IC50 was more than 200 nM.); for `COc1ccc(CNC[C@H]2CC[C@@H](Nc3cc(N(C)C)c4ccccc4n3)CC2)cc1OC` [compound 1193], 3 (Class 3 The value of percent of control at 10^−7 M was more than 60% or the value of IC50 was more than 200 nM.); for `Cc1cc(CNC[C@H]2CC[C@@H](Nc3cc(N(C)C)c4ccccc4n3)CC2)ccc1O` [compound 1194], 3 (Class 3 The value of percent of control at 10^−7 M was more than 60% or the value of IC50 was more than 200 nM.).
The figure for `COc1cc(C)c(CNC[C@H]2CC[C@@H](Nc3cc(N(C)C)c4ccccc4n3)CC2)cc1C` [compound 1195] is 3 (Class 3 The value of percent of control at 10^−7 M was more than 60% or the value of IC50 was more than 200 nM.); for `COc1cccc(CNC[C@H]2CC[C@@H](Nc3cc(N(C)C)c4ccccc4n3)CC2)c1O` [compound 1196] it is 3 (Class 3 The value of percent of control at 10^−7 M was more than 60% or the value of IC50 was more than 200 nM.).
The figure for `CN(C)c1cc(N[C@H]2CC[C@@H](CNCc3cc(C(F)(F)F)cc(Cl)c3F)CC2)nc2ccccc12` [compound 1197] is 3 (Class 3 The value of percent of control at 10^−7 M was more than 60% or the value of IC50 was more than 200 nM.); for `CN(C)c1cc(N[C@H]2CC[C@@H](CNCc3cc(F)cc(C(F)(F)F)c3)CC2)nc2ccccc12` [compound 1198] it is 3 (Class 3 The value of percent of control at 10^−7 M was more than 60% or the value of IC50 was more than 200 nM.).
Take `COc1cc(CNC[C@H]2CC[C@@H](Nc3cc(N(C)C)c4ccccc4n3)CC2)cc(F)c1O` [compound 1199]: the class is reported as 3 (Class 3 The value of percent of control at 10^−7 M was more than 60% or the value of IC50 was more than 200 nM.).
For `COc1cc(F)c(CNC[C@H]2CC[C@@H](Nc3cc(N(C)C)c4ccccc4n3)CC2)cc1OC` [compound 1200] the value was 3 (Class 3 The value of percent of control at 10^−7 M was more than 60% or the value of IC50 was more than 200 nM.).
